Experimental findings from ChEMBL document CHEMBL6134781, “In vitro identification of oridonin hybrids as potential anti-TNBC agents inducing cell cycle arrest and apoptosis by regulation of p21, γH2AX and cleaved PARP” (RSC Med Chem, 2024) are described below.

Structures are written as SMILES. Active and inactive are the calls of the source.

For series [1], the system named is HCC1806. Kind of series: Cytotoxicity against human HCC1806 cells assessed as inhibition of cell viability incubated for 72 hrs by SRB assay. The series is classed as functional, cell-based. The settings on record: HCC1806, 72 h. In general terms: Sulforhodamine B stains cellular protein and so reports cell mass.
Series [2] deals with MDA-MB-231. In words: Induction of cell cycle arrest in human MDA-MB-231 cells assessed as accumulation at G2/M phase incubated for 16 hrs by PI staining based flow cytometry. The series is classed as functional. The settings on record: dose 1-3 µM.
Series [3] concerns MDA-MB-231. In words: Induction of cell cycle arrest in human MDA-MB-231 cells assessed as decrease in accumulation at S phase incubated for 16 hrs by PI staining based flow cytometry. The series is classed as functional. The conditions noted are these: dose 1-3 µM. In general terms: A flow cytometer gives signals particle by particle.
The test system of series [4] is MDA-MB-468. In words: Induction of cell cycle arrest in human MDA-MB-468 cells assessed as decrease in accumulation at S phase incubated for 16 hrs by PI staining based flow cytometry. In kind it is functional. The settings on record: dose 1-3 µM.
In series [5] the test system is HCC1937. Kind of series: Effect on cell cycle distribution in human HCC1937 cells at 1 to 3 uM incubated for 16 hrs by PI staining based flow cytometry. In kind it is functional. The conditions noted are these: dose 1-3 µM.
In series [6] the test system is MDA-MB-231. Kind of series: Induction of apoptosis in human MDA-MB-231 cells assessed as viable cells at 1 uM incubated for 16 hrs by Annexin V-FITC/PI staining based flow cytometry (reference value: 89.5 %). The series is classed as functional. The conditions noted are these: read-out: Activity.
The subject of series [7] is MDA-MB-231. Kind of series: Induction of apoptosis in human MDA-MB-231 cells assessed as early apoptotic cells at 3 uM incubated for 16 hrs by Annexin V-FITC/PI staining based flow cytometry (reference value: 1.94 %). The series is classed as functional.
In series [8] the test system is MDA-MB-468. In words: Induction of apoptosis in human MDA-MB-468 cells assessed as necrotic cells at 3 uM incubated for 24 hrs by Annexin V-FITC/PI staining based flow cytometry (reference value: 4.11 %). In kind it is functional.
In series [9] the test system is HCC1937. Kind of series: Induction of apoptosis in human HCC1937 cells assessed as viable cells at 1 uM incubated for 24 hrs by Annexin V-FITC/PI staining based flow cytometry (reference value: 97.2 %). In kind it is functional. The settings on record: read-out: Activity.
Series [10] relates to HCC1937. In words: Induction of apoptosis in human HCC1937 cells assessed as necrotic cells at 3 uM incubated for 24 hrs by Annexin V-FITC/PI staining based flow cytometry (reference value: 0.58 %). In kind it is functional.
In series [11] the test system is HCC1806. In words: Induction of apoptosis in human HCC1806 cells assessed as necrotic cells at 1 uM incubated for 24 hrs by Annexin V-FITC/PI staining based flow cytometry (reference value: 0.049 %). In kind it is functional.
Series [12] relates to HCC1806. Kind of series: Induction of apoptosis in human HCC1806 cells assessed as early apoptotic cells at 3 uM incubated for 24 hrs by Annexin V-FITC/PI staining based flow cytometry (reference value: 3.06 %). In kind it is functional.
Series [13] has as its system HCC1806. In words: Induction of apoptosis in human HCC1806 cells assessed as late apoptotic cells at 3 uM incubated for 24 hrs by Annexin V-FITC/PI staining based flow cytometry (reference value: 1.48 %). In kind it is functional.
For series [14], the system named is HCC1806. In words: Induction of apoptosis in human HCC1806 cells assessed as necrotic cells at 3 uM incubated for 24 hrs by Annexin V-FITC/PI staining based flow cytometry (reference value: 0.049 %). In kind it is functional.
Series [15] concerns MDA-MB-231. Kind of series: Induction of apoptosis in human MDA-MB-231 cells assessed as increase in cleaved PARP-1 level incubated for 16 hrs by Western blot analysis. In kind it is functional, cell-based. The settings on record: dose 1-3 µM. On the technique in general: In western blotting, separated proteins are transferred to a membrane and probed.
Series [16] deals with MDA-MB-468. Kind of series: Induction of apoptosis in human MDA-MB-468 cells assessed as increase in cleaved PARP-1 level incubated for 24 hrs by Western blot analysis. In kind it is functional, cell-based. The settings on record: dose 1-3 µM.
Series [17] relates to HCC1937. Kind of series: Induction of apoptosis in human HCC1937 cells assessed as increase in cleaved PARP-1 level incubated for 24 hrs by Western blot analysis. The series is classed as functional, cell-based. The conditions noted are these: dose 1-3 µM.
Series [18] relates to MDA-MB-231. Kind of series: Induction of cell cycle arrest in human MDA-MB-231 cells assessed as increase in p21 level incubated for 16 hrs by Western blot analysis. The series is classed as functional, cell-based. The settings on record: dose 1-3 µM.
Series [19] has as its system HCC1937. Kind of series: Induction of cell cycle arrest in human HCC1937 cells assessed as increase in p21 level incubated for 16 hrs by Western blot analysis. The settings on record: dose 1-3 µM. The series is classed as functional, cell-based.
The subject of series [20] is MDA-MB-468. In words: Induction of DNA damage in human MDA-MB-468 cells assessed as increase in gamma-H2AX level incubated for 24 hrs by Western blot analysis. The series is classed as functional, cell-based. The conditions noted are these: dose 1-3 µM.
Series [21] in a line: Stability in human plasma assessed as half life at 100 uM by LC-MS/MS analysis. The series is classed as ADME, cell-free.

Regarding `C=C1C(=O)[C@]23[C@H](OC(=O)C45CC6CC(CC(C6)C4)C5)[C@H]1CC[C@H]2[C@@]12CO[C@]3(O)[C@@H](O)[C@@H]1C(C)(C)CC[C@@H]2O`, in series [1], the IC50 (usually the point on the concentration scale where inhibition reaches its midpoint) worked out at 1400 nM. In addition, the Activity result in series [2] was “Dose-dependent-effect”; in series [3], “Dose-dependent-effect”; in series [4], “Dose-dependent-effect”; in series [7] it was 3.51%; in series [8], 0.44%; in [10], 0.61%. In addition, the Activity in series [11] is 0.088%; in series [12] it was 11%; in series [13], 14.2%; in series [14], 0.091%; in [15], “Dose-dependent-effect”; in series [16], “Dose-dependent-effect”. Moreover, the Activity result in series [17], in series [18], in series [19] and in series [20] was “Dose-dependent-effect” throughout. Besides, in [5], the result was Active. Also, the values for the viability at 1 µM in [6] and in series [9] were 93.5% and 96.1%, respectively. For the same compound, the half-life (in general, the time needed for the level to fall by half in the phase considered) at 100 µM in series [21] turned out to be 144 min.
